Measurements as given in patent publication US20140044709A1, “TREATMENT OF HER2-POSITIVE CANCER WITH PACLITAXEL AND TRASTUZUMAB-MCC-DM1” (priority 2010, published 2014).
Where two headings read alike, the source gives them in different places.

Experiments:
patients with MBC = settings: single agent, cited from earlier work
[1] = system: patients with HER2-positive MBC
From the text: Patients with confirmed HER2-positive MBC whose disease had progressed on multiple lines of therapy, including HER2-directed therapy, were eligible.
Preliminary data in 112 evaluable patients are also available from the Phase II study.

[2] = system: patients with HER2-positive MBC; remark: listed apart in the source
[3] = Pertuzumab PK studies (Phase Ia and II); type: in vivo, human
From the text: A two-compartment model adequately described the concentration-time data with a terminal half-life of approximately 17 days for a typical patient.
Population PK modeling of data from Phase Ia and II studies supports the continued use of fixed non-weight based dosing in female patients.

patients with cancer [4] = experiment: Pertuzumab across all studies, symptomatic cardiac failure; type: in vivo, human; settings: 4 of 842 patients across all studies
From the text: Two of these patients had MBC and had received prior anthracyclines and two patients had ovarian cancer patients, one of whom had cardiac risk factors (hypertension/hyperlipidemia).

patients with cancer [5] = experiment: Pooled Phase II trials of single-agent pertuzumab, safety; type: in vivo, human
patients with cancer [6] = experiment: Completed Phase Ib combination studies of pertuzumab, LVEF; type: in vivo, human; settings: 2/35 patients
From the text: Grade 3-4 adverse events have been less frequently reported, with the more frequent events being Grade 3 diarrhea (5%), Grade 3 vomiting (2%), and Grade 3 nausea (<1%). Asymptomatic decreases in LVEF have been reported as adverse events in 14% of patients and were mainly (−70%) Grade 1 events.

[7] = subgroup with at least 6 months of follow-up or discontinued (n=76)
[8] = pooled Phase II single agent (n=353), generally Grade 1-2

CC(=O)O[C@H]1C(=O)[C@@]2(C)[C@H]([C@H](OC(=O)c3ccccc3)[C@]3(O)C[C@H](OC(=O)[C@H](O)[C@@H](NC(=O)c4ccccc4)c4ccccc4)C(C)=C1C3(C)C)[C@]1(OC(C)=O)CO[C@@H]1C[C@@H]2O (relative stereo) [paclitaxel, β-(benzoylamino)-α-hydroxy-,6,12b-bis (acetyloxy)-12-(benzoyloxy)-2a,3,4,4a,5,6,9,10,11,12,12a,12b-dodecahydro-4,11-dihydroxy-4a,8,13,13-tetramethyl-5-oxo-7,11-methano-1H-cyclodeca(3,4)benz(1,2-b) oxet-9-ylester,(2aR-(2a-α,4-β,4a-β,6-β,9-α (α-R*,β-S*),11-α,12-α,12a-α,2b-α))-benzenepropanoic acid]
response rates (patients with MBC; first-line treatment of MBC): 29-63%
response rates (patients with MBC; second-line treatment of MBC): 21-56%

T-DM1
objective responses confirmed by follow-up imaging ([1]; 107 efficacy-evaluable patients, 29 responses): 27.1%
objective responses (CRs and PRs) ([1]; 107 efficacy-evaluable patients, 42 responses): 39.3%
response rate [1, 7]: 43.4%
response rate confirmed by follow-up imaging [1, 7]: 38.2%
responses ([2]; 1.2 mg/kg weekly (n=3)): three
responses ([2]; 1.6 mg/kg weekly (n=3)): two
responses ([2]; 2.0 mg/kg weekly (n=3)): two
ORR in patients with measurable disease and confirmed HER2 status by central review ([2]; every 3-week schedule, 5/11): 46%
6-month clinical benefit rate (CR+PR+SD>6 months) ([2]; every 3-week schedule, 13/24): 54%
objective response rate (ORR) ([2]; every-3-week schedule, 24 patients): 21%
responses confirmed according to RECIST ([2]; every-3-week schedule, of six responses): five
ORR in patients with measurable disease and confirmed HER2 status by central review ([2]; weekly schedule, 7/15): 47%
6-month clinical benefit rate (CR+PR+SD>6 months) ([2]; weekly schedule, 18/28): 64%
objective response rate (ORR) ([2]; weekly schedule, 28 patients): 54%
responses confirmed according to RECIST ([2]; weekly schedule, of 15 responses): 13

pertuzumab: humanized monoclonal antibody that binds to extracellular domain II of HER2 and blocks its ability to dimerize with other HER receptors
attaining steady-state trough and peak concentrations ([3]; loading dose 840 mg followed by 420 mg every 3 weeks): by the second cycle
terminal half-life ([3]; two-compartment model, typical patient): approximately 17 days
symptomatic cardiac failure events (patients with cancer [4]): 0.5%
asymptomatic decreases in LVEF reported as adverse events (patients with cancer [5]; % of patients): 14%
LVEF declines of ≧10% to <50% (patients with cancer [5]; completed Phase II single-agent studies, 21/302 patients): 7%
Grade 3 diarrhea (patients with cancer [5]; pooled Phase II single agent): 5%
Grade 3 nausea (patients with cancer [5]; pooled Phase II single agent): < 1%
Grade 3 vomiting (patients with cancer [5]; pooled Phase II single agent): 2%
abdominal pain (patients with cancer [5]; [8]): 24%
diarrhea (patients with cancer [5]; [8]): 58%
fatigue (patients with cancer [5]; [8]): 32%
nausea (patients with cancer [5]; [8]): 31%
rash (patients with cancer [5]; [8]): 17%
vomiting (patients with cancer [5]; [8]): 22%
tolerability (patients with cancer [5]; single agent, five Phase II studies): well tolerated
LVEF declines of ≧10% to <50% (patients with cancer [6]): 6%
